Reference: patent US20200316090A1, “TARGETED THERAPEUTICS” (MADRIGAL PHARMACEUTICALS, INC., priority 2012, published 2020)
Like-named read-outs stand apart in the source and are kept apart here.

What was measured:
[1] = Artificial membrane permeability assay (PAMPA)
Procedure: In order to test the ability SDC-TRAP molecules of the invention to enter cells, an artificial membrane permeability assay (“PAMPA”) was used. […] LC/MS was used in conjunction with PAMPA assays to determine the ability of the SDC-TRAP molecules of the invention to permeate cells.
Pre-coated PAMPA plates were warmed to room temperature for at least 30 minutes prior to adding assay components.
Stock solutions were prepared with the SDC-TRAP molecules to be tested. In order to make a working solution, either 50 μL of 100 μM Stock in DMSO+950 μL of PBS or 50 μL of 200 stock was added to 96 deep well plate, resulting in a 5 μM final concentration or a 10 μM final concentration, respectively. […] 200 μL of PBS was added into the corresponding wells of an acceptor PAMPA plates.
The acceptor plate was lowered onto the donor plate and allowed to incubate for five hours. After five hours, a 50 μL aliquot was removed from each well of each plate and added into a new 96 deep-well plate.
100 μL of methanol containing an internal standard was added to each aliquot and analyzed by LC/MS. The internal standard was 150 ng/ml SDC-TRAP-0002.
In order to calculate the permeability for each SDC-TRAP molecule and the control molecules, the following formula was used:
Permeability (in Unit of Cm/s):
[formula] • C0=initial compound concentration in donor well (mM) • CD (t)=compound concentration in donor well at time t. (mM) • CA (t)=compound concentration in acceptor well at time t. (mM) • VD=donor well volume=0.3 mL • VA=acceptor well volume=0.2 mL • A=filter area=0.3 cm^2 • t=incubation time=18000 s (5 h)
For the data presented in the table below, peak area was used in place of concentration in the formula above.

[2] = Tissue distribution of SDC-TRAP and degradation products in tumor-bearing mice (plasma, tumor, heart); assay type: in vivo, Female SCID Mouse (H1975); conditions: female, SCID, mouse, in vivo
[3] = Permeability (10^−6 cm/s), 5 h incubation, peak area used in place of concentration, first table
[4] = Permeability (cm/s), 5 h incubation, peak area used in place of concentration, first table

Compound | Mass Retention (%) ([1]; 5 h incubation, first table) | Papp at 5 h [1, 3] [×10⁻⁶ cm/s] | Papp at 5 h [1, 4] [×10⁻⁶ cm/s] | Mass Retention (%) ([1]; same protocol, second table) | other results
Nc1cccc2c1CN(C1CCC(=O)NC1=O)C2=O (stereo not drawn) [Lenalidomide, lenalidomide, reference compound] | 26.0 | 0.062 | 0.062 |  | Kp at 1 h [2]: 11.9; Kp at […] [2]: 0.449
CCNC(=O)c1nnc(-c2cc(C(C)C)c(O)cc2O)n1-c1ccc(OC2CCN(c3cnc(C(=O)N[C@H]4C[C@H](O[C@H]5C[C@](O)(C(=O)CO)Cc6c(O)c7c(c(O)c65)C(=O)c5c(OC)cccc5C7=O)O[C@@H](C)[C@H]4O)cn3)CC2)cc1 [SDC-TRAP-0200, 5-(4-(4-(3-(2,4-dihydroxy-5-isopropylphenyl)-5-(ethylcarbamoyl)-4H-1,2,4-triazol-4-yl)phenoxy)piperidin-1-yl)-N-((2S,3S,4S,6R)-3-hydroxy-2-methyl-6-(((1S,3S)-3,5,12-trihydroxy-3-(2-hydroxyacetyl)-10-methoxy-6,11-dioxo-1,2,3,4,6,11-hexahydrotetracen-1-yl)oxy)tetrahydro-2H-pyran-4-yl)pyrazine-2-carboxamide] |  |  |  | 10.6 | 
CCNC(=O)c1nnc(-c2cc(C(C)C)c(O)cc2O)n1-c1ccc2c(ccn2CCC2CCN(C(=O)Oc3ccc4nc5c(c(CC)c4c3)Cn3c-5cc4c(c3=O)COC(=O)[C@]4(O)CC)CC2)c1 [SDC-TRAP-0205, (S)-4,11-diethyl-4-hydroxy-3,14-dioxo-3,4,12,14-tetrahydro-1H-pyrano[3′,4′:6,7]indolizino[1,2-b]quinolin-9-yl 4-(2-(5-(3-(2,4-dihydroxy-5-isopropylphenyl)-5-(ethylcarbamoyl)-4H-1,2,4-triazol-4-yl)-1H-indol-1-yl)ethyl)piperidine-1-carboxylate] |  |  |  | 10.9 | 
CCNC(=O)c1nnc(-c2cc(C(C)C)c(O)cc2O)n1-c1ccc2c(ccn2CCC2CCN(C(=O)O[C@]3(CC)C(=O)OCc4c3cc3n(c4=O)Cc4c-3nc3ccc(O)cc3c4CC)CC2)c1 [SDC-TRAP-0208, (S)-4,11-diethyl-9-hydroxy-3,14-dioxo-3,4,12,14-tetrahydro-1H-pyrano[3′,4′:6,7]indolizino[1,2-b]quinolin-4-yl 4-(2-(5-(3-(2,4-dihydroxy-5-isopropylphenyl)-5-(ethylcarbamoyl)-4H-1,2,4-triazol-4-yl)-1H-indol-1-yl)ethyl)piperidine-1-carboxylate] |  |  |  | 25.0 | 
CCc1c2c(nc3ccc(OC(=O)N4CCC[C@H]4C(=O)N4CCC(CCn5ccc6cc(-n7c(O)nnc7-c7cc(C(C)C)c(O)cc7O)ccc65)CC4)cc13)-c1cc3c(c(=O)n1C2)COC(=O)[C@]3(O)CC [SDC-TRAP-0210] | 34.8 |  |  | 72.2 | Papp at 5 h [1]: 0.00899 ×10⁻⁶ cm/s; Permeability (10^−6 cm/s) ([1]; same protocol, second table): 0.00899 10^−6 cm/s
CC(C)c1cc(-c2nnc(C(=O)NCCCCCS(N)(=O)=O)n2-c2ccc(CN3CCOCC3)cc2)c(O)cc1O [SDC-TRAP-0232, 5-(2,4-dihydroxy-5-isopropylphenyl)-4-(4-(morpholinomethyl)phenyl)-N-(5-sulfamoylpentyl)-4H-1,2,4-triazole-3-carboxamide] | 21.0 | 0.00689 | 0.00689 |  | 
